From patent US11512053B2, “Arginine methyltransferase inhibitors and uses thereof” (priority 2013, dated 2022) come the findings set out here.

SMILES strings stand for the structures. Structures can show the parent of a compound that is named as a salt. Where two headings read alike, the source gives them in different places. Some results are limits rather than exact numbers.

The target of assay [1] is full-length human PRMT1 isoform 1 (GST-tagged) (Homo sapiens, UniProt Q99873). The assay is described as follows: PRMT1 Biochemical Assay (3H-SAM Flashplate, peptide substrate). The method in brief:
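GST-tagged full-length PRMT1 from baculovirus-infected cells, preincubated 30 min at room temperature with compound in 20 mM Bicine pH 7.6, TCEP, BSG, Tween 20. Reaction started with 3H-SAM plus biotinylated peptide, stopped with 300 uM unlabelled SAM. Streptavidin Flashplate capture and scintillation counting; % inhibition curve-fitted for IC50.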

Assay [2] addresses full-length human PRMT8 isoform 1 (Homo sapiens, UniProt Q9NR22). The assay is described as follows: PRMT8 Biochemical Assay (3H-SAM Flashplate, peptide substrate). Particulars: read-out: Biochemical IC50 PRMT8. The method in brief:
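Full-length human PRMT8 (1.5 nM, E. coli-expressed, GST removed) preincubated 30 min at room temperature with compound, then reacted with 50 nM 3H-SAM plus 550 nM cold SAM and 150 nM biotinylated H4 31-45 peptide in 20 mM Bicine pH 7.6, 1 mM TCEP, 0.005% BSG, 0.002% Tween 20, 2% DMSO. Quenched with 400 uM cold SAM; labelled peptide captured on streptavidin Flashplate, % inhibition versus 1 mM SAH and DMSO controls fitted to 4- or 3-parameter curve.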

Where [3] appears, read: single experiment or average of multiple experiments.

Chain of full-length human PRMT8 isoform 1 (Q9NR22 whole entry, canonical isoform): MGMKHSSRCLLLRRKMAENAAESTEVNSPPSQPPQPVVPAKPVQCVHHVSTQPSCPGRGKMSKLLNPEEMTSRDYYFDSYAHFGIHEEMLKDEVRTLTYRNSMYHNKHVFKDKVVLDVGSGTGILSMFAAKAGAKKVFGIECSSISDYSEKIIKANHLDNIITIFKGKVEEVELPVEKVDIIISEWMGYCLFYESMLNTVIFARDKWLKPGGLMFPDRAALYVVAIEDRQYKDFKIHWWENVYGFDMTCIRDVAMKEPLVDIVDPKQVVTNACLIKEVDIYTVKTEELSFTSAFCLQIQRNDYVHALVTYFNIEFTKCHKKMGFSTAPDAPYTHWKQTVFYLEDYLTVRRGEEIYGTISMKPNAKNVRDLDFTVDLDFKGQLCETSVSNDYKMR
Chain of full-length human PRMT1 isoform 1 (GST-tagged) (Q99873 with tags, fused parts or gaps): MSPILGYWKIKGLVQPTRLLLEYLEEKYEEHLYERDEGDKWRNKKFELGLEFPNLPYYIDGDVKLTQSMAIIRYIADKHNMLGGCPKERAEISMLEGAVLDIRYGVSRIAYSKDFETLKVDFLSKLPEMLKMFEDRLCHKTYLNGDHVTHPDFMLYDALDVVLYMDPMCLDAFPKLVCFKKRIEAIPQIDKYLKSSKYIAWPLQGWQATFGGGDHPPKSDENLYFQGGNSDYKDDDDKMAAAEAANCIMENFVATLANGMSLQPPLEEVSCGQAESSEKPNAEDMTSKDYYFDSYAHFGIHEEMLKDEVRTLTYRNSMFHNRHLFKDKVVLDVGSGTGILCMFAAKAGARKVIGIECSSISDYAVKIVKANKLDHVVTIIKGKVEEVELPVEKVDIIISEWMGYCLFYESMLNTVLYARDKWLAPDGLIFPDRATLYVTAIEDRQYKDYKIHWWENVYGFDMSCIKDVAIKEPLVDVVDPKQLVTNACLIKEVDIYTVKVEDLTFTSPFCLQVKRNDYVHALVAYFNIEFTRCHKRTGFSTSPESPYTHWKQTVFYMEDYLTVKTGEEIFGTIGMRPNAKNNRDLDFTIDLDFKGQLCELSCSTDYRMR

Take `CNCCN(C)Cc1c[nH]nc1[C@H]1CC[C@H](N(CCCOC)C(=O)CCOc2ccccc2)CC1` [Compound 247]: the IC50 is less than 100 nM in assay [1], 11.1 nM in assay [1] (setting [3]), less than 100 nM in assay [2] and 16.4 nM in assay [2] (setting [3]).
Turning to `CNCCN(C)Cc1c[nH]nc1[C@H]1CC[C@H](C(=O)N(C)CCC(C)C)CC1` [Compound 209], the IC50 in assay [1] was less than 100 nM; in assay [1] (setting [3]) it was 27.8 nM; in assay [2], less than 100 nM; in assay [2] (setting [3]) it was 43.9 nM.
As to `CNCCN(C)Cc1c[nH]nc1[C@H]1CC[C@@H](N(CCOc2ccccc2)C(=O)CCOC)CC1` [Compound 218], the 50% inhibitory concentration (IC50) in assay [1] is less than 100 nM; in assay [1] (setting [3]) it was 41.7 nM; in assay [2], less than 100 nM; in assay [2] (setting [3]) it was 67 nM.
Take `CNCCN(C)Cc1c[nH]nc1[C@H]1CC[C@H](N(CCOc2ccccc2)C(=O)CCCOC)CC1` [Compound 229]: the IC50 in assay [1] was less than 100 nM; in assay [1] (setting [3]) it was 10.8 nM; in assay [2] it was less than 100 nM; in assay [2] (setting [3]), 16 nM.
As for `CNCCN(C)Cc1c[nH]nc1[C@H]1CC[C@@H](N(CCOC)C(=O)CCC(C)C)CC1` [Compound 261], the IC50 was less than 100 nM in assay [1], 13 nM in assay [1] (setting [3]), less than 100 nM in assay [2] and 16.7 nM in assay [2] (setting [3]).
In the case of `CCOC[C@@H]1C[C@H](COCC)C[C@H](c2n[nH]cc2CN(C)CCNC)C1` [Compound 189], the IC50 in assay [1] was 101 to 1000 nM; in assay [1] (setting [3]) it was 108 nM; in assay [2], 101 to 1000 nM; in assay [2] (setting [3]), 478 nM.
Regarding `CNCCN(C)Cc1c[nH]nc1[C@H]1CC[C@H](O)CC1` [Compound 227, 4-[4-([methyl[2-(methylamino)ethyl]amino]methyl)-1H-pyrazol-3-yl]cyclohexan-1-ol trifluoroacetate], the IC50 is less than 100 nM in assay [1], 16.8 nM in assay [1] (setting [3]), less than 100 nM in assay [2] and 35.8 nM in assay [2] (setting [3]).
`CNCCN(C)Cc1c[nH]nc1[C@H]1CC[C@@H](C(=O)N(C)CCOc2ccccc2)CC1` [Compound 259]: the IC50 in assay [1] was less than 100 nM; in assay [1] (setting [3]), 15.8 nM; in assay [2] it was less than 100 nM; in assay [2] (setting [3]), 17.1 nM.
Take `CNCCN(C)Cc1c[nH]nc1[C@H]1CC[C@H](N(CCCOC)C(=O)CC(C)C)CC1` [Compound 241]: the concentration for half-maximal inhibition (IC50) is less than 100 nM in assay [1], 22.4 nM in assay [1] (setting [3]), less than 100 nM in assay [2] and 48.9 nM in assay [2] (setting [3]).
For the compound `CNCCN(C)Cc1c[nH]nc1C1CCC(C)(C)[C@H](C(=O)NCCCOC)C1` (some centres unmarked) [Compound 265], the IC50 in assay [1] was less than 100 nM; in assay [1] (setting [3]), 58.8 nM; in assay [2], 101 to 1000 nM; in assay [2] (setting [3]) it was 171 nM.
Regarding `CNCCN(C)Cc1c[nH]nc1C1CCC(C)(C)[C@H](C(=O)NCCOC)C1` (some centres unmarked) [Compound 264], the IC50 in assay [1] is less than 100 nM; in assay [1] (setting [3]) it was 78 nM; in assay [2] it was 101 to 1000 nM; in assay [2] (setting [3]) it was 181 nM.
For the compound `CNCCN(C)Cc1c[nH]nc1[C@H]1CC[C@@H](N(CC(C)C)C(=O)CCOC)CC1` [Compound 233], the IC50 is less than 100 nM in assay [1], 20.7 nM in assay [1] (setting [3]), less than 100 nM in assay [2] and 42.7 nM in assay [2] (setting [3]).
As for `CNCCN(C)Cc1cn(C)nc1[C@H]1CC[C@@]2(CC1)CC(C)(C)CO2` [Compound 205, Methyl([1-methyl-3-[(5S,8S)-3,3-dimethyl-1-oxaspiro[4.5]decan-8-yl]-1H-pyrazol-4-yl]methyl)[2-(methylamino)ethyl]amine hydrochloride], the IC50 in assay [1] was less than 100 nM; in assay [1] (setting [3]), 12.8 nM; in assay [2] it was less than 100 nM; in assay [2] (setting [3]), 15.4 nM.
In the case of `CNCCN(C)Cc1c[nH]nc1[C@H]1CC[C@H](C(=O)N(CCCOC)CCC(C)C)CC1` [Compound 213], the IC50 was less than 100 nM in assay [1], 53.9 nM in assay [1] (setting [3]), 101 to 1000 nM in assay [2] and 165 nM in assay [2] (setting [3]).
Taken in the same sequence, the figures for `CNCCN(C)Cc1c[nH]nc1[C@H]1CC[C@H](N(CC(C)C)C(=O)CCCOC)CC1` [Compound 248] were less than 100 nM, 13.2 nM, less than 100 nM and 28.2 nM.
Taken in the same sequence, the figures for `CNCCN(C)Cc1c[nH]nc1[C@H]1CC[C@@H](C(=O)N(C)CCC(C)C)CC1` [Compound 210] were less than 100 nM, 13.1 nM, less than 100 nM and 22.9 nM.
Taken in the same sequence, the figures for `CNCCN(C)Cc1c[nH]nc1[C@H]1CC[C@H](C(=O)N(C)CCOc2ccccc2)CC1` [Compound 258] were less than 100 nM, 7.59 nM, less than 100 nM and 10.8 nM.
As for `CNCCN(C)Cc1c[nH]nc1[C@H]1CC[C@@H](N(CC(C)C)C(=O)CCOc2ccccc2)CC1` [Compound 231], the IC50 is less than 100 nM in assay [1], 6.49 nM in assay [1] (setting [3]), less than 100 nM in assay [2] and 9.32 nM in assay [2] (setting [3]).
For `CNCCN(C)Cc1c[nH]nc1C1CCC(C)(C)[C@H](C(=O)OC)C1` (some centres unmarked) [Compound 256], the IC50 in assay [1] was less than 100 nM; in assay [1] (setting [3]), 23.7 nM; in assay [2], less than 100 nM; in assay [2] (setting [3]), 44 nM.
Consider `CNCCN(C)Cc1c[nH]nc1C1C[C@H](C(=O)N(C)CC(C)C)C(C)(C)[C@H](C(=O)N(C)CC(C)C)C1` (some centres unmarked) [Compound 267], for which the concentration for half-maximal inhibition (IC50) in assay [1] was 3010 to 10000 nM; in assay [1] (setting [3]) it was 3500 nM; in assay [2] it was 3010 to 10000 nM; in assay [2] (setting [3]), 5910 nM.
For the compound `CN(CCN)Cc1c[nH]nc1[C@H]1CC[C@]2(CC1)CC(C)(C)CO2` [Compound 208], the IC50 in assay [1] is less than 100 nM; in assay [1] (setting [3]), 6.94 nM; in assay [2], less than 100 nM; in assay [2] (setting [3]), 12.8 nM.
In the case of `CNCCN(C)Cc1c[nH]nc1[C@H]1CC[C@]2(CCCO2)OC1` [Compound 198], the IC50 in assay [1] was 3010 to 10000 nM; in assay [1] (setting [3]), not below 10000 nM; in assay [2] it was 3010 to 10000 nM; in assay [2] (setting [3]), not below 10000 nM.
Turning to `CNCCN(C)Cc1c[nH]nc1[C@H]1CC[C@@H](N(CCCOC)C(=O)CCOc2ccccc2)CC1` [Compound 246], the IC50 in assay [1] is less than 100 nM; in assay [1] (setting [3]), 12.6 nM; in assay [2], less than 100 nM; in assay [2] (setting [3]) it was 23.8 nM.
With `CNCCN(C)Cc1c[nH]nc1[C@H]1CC[C@H](N(CCOC)C(=O)CCC(C)C)CC1` [Compound 254], the IC50 was less than 100 nM in assay [1], 17.3 nM in assay [1] (setting [3]), less than 100 nM in assay [2] and 44 nM in assay [2] (setting [3]).
As to `CN(CCN)Cc1c[nH]nc1[C@H]1CC[C@@]2(CC1)CC(C)(C)CO2` [Compound 207], the IC50 in assay [1] and in assay [2] was less than 100 nM throughout.
`CNCCN(C)Cc1c[nH]nc1C1CCC2(CCCC2)OC1` (centres unmarked) [Compound 199]: the IC50 in assay [1] was less than 100 nM; in assay [1] (setting [3]) it was 16.8 nM; in assay [2], less than 100 nM; in assay [2] (setting [3]), 38.3 nM.
In the case of `CNCCN(C)Cc1c[nH]nc1[C@H]1CC[C@H](N(CC(C)C)C(=O)CC2CCOCC2)CC1` [Compound 193], the concentration for half-maximal inhibition (IC50) in assay [1] was less than 100 nM; in assay [1] (setting [3]), 28.4 nM; in assay [2], less than 100 nM; in assay [2] (setting [3]), 68.8 nM.
In the case of `CNCCN(C)Cc1c[nH]nc1[C@H]1CC[C@H](C(=O)NCCOc2ccccc2)CC1` [Compound 211], the IC50 in assay [1] is less than 100 nM; in assay [1] (setting [3]), 8.28 nM; in assay [2], less than 100 nM; in assay [2] (setting [3]), 10 nM.
